Literature values, collected in PMC7599555 (Biomedicines, 2020).

System: TTX-sensitive channels; NaV1.8

## NC1=N[C@H](O)[C@H]2[C@H]3O[C@]4(O)O[C@@H]([C@@H](O)[C@@]2(N1)[C@@H]4O)[C@]3(O)CO [TTX, tetrodotoxin]
  inhibition of TTX-sensitive channels and NaV1.8: fully inhibits TTX-sensitive channels but not NaV1.8
